Among the data in patent US20230272029A1, “CO-AGONISTS AT GLP-1 AND GIP RECEPTORS SUITABLE FOR ORAL DELIVERY” (Novo Nordisk A/S, priority 2020, published 2023) are AUC/Dose and Cmax/Dose values, retold here.

SMILES strings stand for the structures. Marks after values point to notes of the source that are not given here. Starred links: 1 amine or outer side, 2 acyl side, 3 side chain; linkers in the order of their positions; H or OH if unused. Non-standard residues stand in square brackets, D forms with d. Residues, ends and D or L forms follow the SMILES beside them. Groups on a side chain read outwards from the residue. *: point of attachment. C18 diacid = O=C(O)CCCCCCCCCCCCCCCCC(=O)*; γGlu = O=C(O)[C@H](CCC(=O)[*:2])N[*:1]; εLys = N[C@@H](CCCCN[*:1])C(=O)[*:2]; AEEA = NCCOCCOCC(=O)O; Aib = CC(C)(N)C(=O)O

The nature of this series: Pharmacokinetic study in dogs after oral dosing of tablets with SNAC. Format: in vivo, Beagle dogs. The following applies: dog, in vivo, po. The procedure: The purpose of this example is to determine the half-life and plasma exposure in vivo of the compounds of the present invention after p.o. administration to beagle dogs, i.e. the terminal half-life and concentration of test substance that reaches circulation with time. This is done in a pharmacokinetic (PK) study, where these parameters of the compound in question are determined. By terminal half-life is generally meant the period of time it takes to halve a certain plasma concentration, measured after the initial distribution phase.
The amount of SNAC in the tablet composition was 100-300 mg, the amount of magnesium stearate in the tablet composition was 7.7 mg, and the target amount of each test substance in the tablet composition was 3-4 mg.
Male beagle dogs, 1-7 years of age and weighing 9-17 kg during the study period, were included in the study. The dogs were dosed in a fasting state. The dogs were group housed in pens (12 hours light: 12 hours dark), and fed individually and restrictedly once daily with Royal Canin Medium Adult dog food (Royal Canin Products, China Branch, or Brogaarden A/S, Denmark). The dogs were used for repeated PK studies with a suitable wash-out period between successive dosing. An appropriate acclimatization period was given prior to initiation of the first PK study. All handling, dosing, and blood sampling of the animals were performed by trained and skilled staff. Before the studies, the dogs were fasted overnight and from 0 to 4 hours after dosing. The dogs were restricted to water 1 hour before dosing until 4 hours after dosing, but otherwise had ad libitum access to water during the whole period.
The compositions were administered by a single oral dosing to the dogs in groups of 6-8 dogs. […] The mouth was then closed, and 10 mL of tap water was given by syringe or gavage to facilitate swallowing of the tablet.
For each blood sample time point, approximately 0.8 mL of whole blood was collected in a 1.5 mL EDTA-coated tube, which was gently turned to mix the sample with EDTA. Blood samples were collected in EDTA buffer (8 mM) and then centrifuged at 4° C. and 2000g for 10 minutes. Plasma was pipetted into Micronic tubes on dry ice, and kept at −20° C. or lower until analysis. Blood samples were taken as appropriate, for example from a venflon in the cephalic vein in the front leg for the first 2 hours and then with syringe from the jugular vein for the rest of the time points. The first few drops were allowed to drain from the venflon to avoid heparin saline from the venflon in the sample.
All blood samples were collected into test tubes containing EDTA for stabilisation and kept on ice until centrifugation. Plasma was separated from whole blood by centrifugation and the plasma was stored at −20° C. or lower until analysis.
The plasma was analysed for test substance using LC-MS (Liquid Chromatography-Mass Spectrometry) as known to the person skilled in the art. […] RP-HPLC separation was achieved using a linear gradient of 1:1 acetonitrile/methanol in 1% aqueous formic acid using either: a Phenomenex Onyx Monolithic C18 column (50×2.0 mm) and a flow rate of 0.8 mL/min at 30° C.; or an Agilent Poroshell 120 SB-C18 column (50×2.1 mm, 2.7 μm) at a flow rate of 0.4 mL/min at 60° C. The mass spectrometer was operated in either positive ionization SIM mode or positive ionization PRM mode.
For each individual animal, a plasma concentration-time profile was analysed by a non-compartmental model in Pharsight Phoenix WinNonLin ver. 6.4 software or other relevant software for PK analysis, and the resulting terminal half-life (t1/2), maximum plasma concentration per dose (Cmax/D), time for maximum plasma concentration (tmax), and area under the curve to infinity per dose (AUC/D) were determined. Summary statistics of pharmacokinetic results were presented as median (for tmax), harmonic mean ([…]), or arithmetic mean (Cmax, AUC).
`CC[C@H](C)[C@H](NC(=O)[C@H](Cc1ccccc1)NC(=O)[C@H](CCC(=O)O)NC(=O)[C@H](Cc1c[nH]cn1)NC(=O)[C@H](C)NC(=O)[C@H](C)NC(=O)[C@H](CCC(N)=O)NC(=O)[C@H](CCCCNC(=O)[C@@H](N)CCCCNC(=O)[C@@H](N)CCCCNC(=O)CC[C@H](NC(=O)CCCCCCCCCCCCCCCCC(=O)O)C(=O)O)NC(=O)[C@H](CCC(=O)O)NC(=O)[C@H](CC(C)C)NC(=O)[C@H](CC(C)C)NC(=O)[C@@H](NC(=O)[C@H](CO)NC(=O)[C@H](Cc1ccc(O)cc1)NC(=O)[C@H](CC(=O)O)NC(=O)[C@H](CO)NC(=O)[C@@H](NC(=O)[C@H](Cc1ccccc1)NC(=O)[C@@H](NC(=O)CNC(=O)[C@H](CCC(=O)O)NC(=O)C(C)(C)NC(=O)[C@@H](N)Cc1ccc(O)cc1)[C@@H](C)O)[C@@H](C)O)[C@@H](C)CC)C(=O)N[C@@H](CCC(=O)O)C(=O)N[C@@H](Cc1c[nH]c2ccccc12)C(=O)N[C@@H](CC(C)C)C(=O)N[C@@H](CC(C)C)C(=O)N[C@@H](C)C(=O)NCC(=O)NCC(=O)N1CCC[C@H]1C(=O)N[C@@H](CO)C(=O)N[C@@H](CO)C(=O)NCC(=O)N[C@@H](C)C(=O)N1CCC[C@H]1C(=O)N1CCC[C@H]1C(=O)N1CCC[C@H]1C(=O)N[C@@H](CO)C(=O)O` [Compound No. 30] (H-Y[Aib]EGTFTSDYSILLEK([εLys-εLys-γGlu-C18 diacid])QAAHEFIEWLLAGGPSSGAPPPS-OH) registered an AUC/Dose of 6.5 kg·h/L and a Cmax/Dose of 0.24 kg/L.

Regarding `CC[C@H](C)[C@H](NC(=O)[C@H](Cc1ccccc1)NC(=O)[C@H](CCC(=O)O)NC(=O)[C@H](CCCNC(=N)N)NC(=O)[C@H](C)NC(=O)[C@H](C)NC(=O)[C@H](CCC(N)=O)NC(=O)[C@H](CCCCNC(=O)[C@@H](N)CCCCNC(=O)[C@@H](N)CCCCNC(=O)CC[C@H](NC(=O)CCCCCCCCCCCCCCCCC(=O)O)C(=O)O)NC(=O)[C@H](CCC(=O)O)NC(=O)[C@H](CC(C)C)NC(=O)[C@H](Cc1ccc(O)cc1)NC(=O)[C@@H](NC(=O)[C@H](CO)NC(=O)[C@H](Cc1ccc(O)cc1)NC(=O)[C@H](CC(=O)O)NC(=O)[C@H](CO)NC(=O)[C@@H](NC(=O)[C@H](Cc1ccccc1)NC(=O)[C@@H](NC(=O)CNC(=O)[C@H](CCC(=O)O)NC(=O)C(C)(C)NC(=O)[C@@H](N)Cc1ccc(O)cc1)[C@@H](C)O)[C@@H](C)O)[C@@H](C)CC)C(=O)N[C@@H](CCC(=O)O)C(=O)N[C@@H](Cc1c[nH]c2ccccc12)C(=O)N[C@@H](CC(C)C)C(=O)N[C@@H](CC(C)C)C(=O)N[C@@H](C)C(=O)NCC(=O)NCC(=O)N1CCC[C@H]1C(=O)N[C@@H](CO)C(=O)N[C@@H](CO)C(=O)NCC(=O)N[C@@H](C)C(=O)N1CCC[C@H]1C(=O)N1CCC[C@H]1C(=O)N1CCC[C@H]1C(=O)N[C@@H](CO)C(=O)O` [Compound No. 9] (H-Y[Aib]EGTFTSDYSIYLEK([εLys-εLys-γGlu-C18 diacid])QAAREFIEWLLAGGPSSGAPPPS-OH), the Cmax/Dose turned out to be 0.24 kg/L.

The compound `CC[C@H](C)[C@H](NC(=O)[C@H](Cc1ccccc1)NC(=O)[C@H](CCC(=O)O)NC(=O)[C@H](CCCNC(=N)N)NC(=O)[C@H](C)NC(=O)[C@H](C)NC(=O)[C@H](CCC(N)=O)NC(=O)[C@H](CCCCNC(=O)[C@@H](N)CCCCNC(=O)[C@@H](N)CCCCNC(=O)CC[C@H](NC(=O)CCCCCCCCCCCCCCCCC(=O)O)C(=O)O)NC(=O)[C@H](CCC(=O)O)NC(=O)[C@H](CC(C)C)NC(=O)[C@H](CC(C)C)NC(=O)[C@@H](NC(=O)[C@H](CO)NC(=O)[C@H](Cc1ccc(O)cc1)NC(=O)[C@H](CC(=O)O)NC(=O)[C@H](CO)NC(=O)[C@@H](NC(=O)[C@H](Cc1ccccc1)NC(=O)[C@@H](NC(=O)CNC(=O)[C@H](CCC(=O)O)NC(=O)C(C)(C)NC(=O)[C@@H](N)Cc1ccc(O)cc1)[C@@H](C)O)[C@@H](C)O)[C@@H](C)CC)C(=O)N[C@@H](CC(N)=O)C(=O)N[C@@H](Cc1c[nH]c2ccccc12)C(=O)N[C@@H](CC(C)C)C(=O)N[C@@H](CC(C)C)C(=O)N[C@@H](C)C(=O)NCC(=O)NCC(=O)N1CCC[C@H]1C(=O)N[C@@H](CO)C(=O)N[C@@H](CO)C(=O)O` [Compound No. 20] (H-Y[Aib]EGTFTSDYSILLEK([εLys-εLys-γGlu-C18 diacid])QAAREFINWLLAGGPSS-OH) gave a Cmax/Dose of 0.21 kg/L.

Regarding `CC[C@H](C)[C@H](NC(=O)[C@H](Cc1ccccc1)NC(=O)[C@H](CCC(=O)O)NC(=O)[C@H](CCCNC(=N)N)NC(=O)[C@H](C)NC(=O)[C@H](C)NC(=O)[C@H](CCC(N)=O)NC(=O)[C@H](CCC(=O)O)NC(=O)[C@H](CCC(=O)O)NC(=O)[C@H](CC(C)C)NC(=O)[C@H](CC(C)C)NC(=O)[C@@H](NC(=O)[C@H](CO)NC(=O)[C@H](Cc1ccc(O)cc1)NC(=O)[C@H](CC(=O)O)NC(=O)[C@H](CO)NC(=O)[C@@H](NC(=O)[C@H](Cc1ccccc1)NC(=O)[C@@H](NC(=O)CNC(=O)[C@H](CCC(=O)O)NC(=O)C(C)(C)NC(=O)[C@@H](N)Cc1ccc(O)cc1)[C@@H](C)O)[C@@H](C)O)[C@@H](C)CC)C(=O)N[C@@H](CCC(=O)O)C(=O)N[C@@H](Cc1c[nH]c2ccccc12)C(=O)N[C@@H](CC(C)C)C(=O)N[C@@H](CC(C)C)C(=O)N[C@@H](C)C(=O)NCC(=O)NCC(=O)N1CCC[C@H]1C(=O)N[C@@H](CO)C(=O)N[C@@H](CCCCNC(=O)[C@@H](N)CCCCNC(=O)[C@@H](N)CCCCNC(=O)CC[C@H](NC(=O)CCCCCCCCCCCCCCCCC(=O)O)C(=O)O)C(=O)NCC(=O)N[C@@H](C)C(=O)N1CCC[C@H]1C(=O)N1CCC[C@H]1C(=O)N1CCC[C@H]1C(=O)N[C@@H](CO)C(=O)O` [Compound No. 43] (H-Y[Aib]EGTFTSDYSILLEEQAAREFIEWLLAGGPSK([εLys-εLys-γGlu-C18 diacid])GAPPPS-OH), the Cmax/Dose is recorded as 0.22 kg/L.

With `CC[C@H](C)[C@H](NC(=O)[C@H](Cc1ccccc1)NC(=O)[C@H](CCC(=O)O)NC(=O)[C@H](CCCNC(=N)N)NC(=O)[C@H](C)NC(=O)[C@H](C)NC(=O)[C@H](CCC(N)=O)NC(=O)[C@H](CCCCNC(=O)COCCOCCNC(=O)COCCOCCNC(=O)CC[C@H](NC(=O)CCCCCCCCCCCCCCCCC(=O)O)C(=O)O)NC(=O)[C@H](CCC(=O)O)NC(=O)[C@H](CC(C)C)NC(=O)[C@H](CC(C)C)NC(=O)[C@@H](NC(=O)[C@H](CO)NC(=O)[C@H](Cc1ccc(O)cc1)NC(=O)[C@H](CC(=O)O)NC(=O)[C@H](CO)NC(=O)[C@@H](NC(=O)[C@H](Cc1ccccc1)NC(=O)[C@@H](NC(=O)CNC(=O)[C@H](CCC(=O)O)NC(=O)C(C)(C)NC(=O)[C@@H](N)Cc1ccc(O)cc1)[C@@H](C)O)[C@@H](C)O)[C@@H](C)CC)C(=O)N[C@@H](CCC(=O)O)C(=O)N[C@@H](Cc1c[nH]c2ccccc12)C(=O)N[C@@H](CC(C)C)C(=O)N[C@@H](CC(C)C)C(=O)N[C@@H](C)C(=O)NCC(=O)NCC(=O)N1CCC[C@H]1C(=O)N[C@@H](CO)C(=O)N[C@@H](CO)C(=O)NCC(=O)N[C@@H](C)C(=O)N1CCC[C@H]1C(=O)N1CCC[C@H]1C(=O)N1CCC[C@H]1C(=O)N[C@@H](CO)C(=O)O` [Compound No. 32] (H-Y[Aib]EGTFTSDYSILLEK([AEEA-AEEA-γGlu-C18 diacid])QAAREFIEWLLAGGPSSGAPPPS-OH), the Cmax/Dose is recorded as 0.45* kg/L.
